# Assay results from patent publication US8889704B2 (Array BioPharma Inc., priority 2011, dated 2014).
# Where a name gives a salt, the structure may show the parent alone.
# How the values were obtained:
# Format in all cases: biochemical
# [1] = molecular target: T1, GST-tagged recombinant full-length human Pim-2 (Homo sapiens, UniProt Q9P1W9); test: PIM-2 Assay (as Example A); details: averaged IC50; 4 μM ATP, 1.0 μM PIM2tide, 1.5 nM Pim-2
# T1 construct: GST-tagged recombinant full-length human Pim-2; GST
# Procedure: (§1) The assay for the determination of PIM-1 activity is based on the incorporation of [^33P]PO4 from [γ-^33P]ATP into PIM2tide substrate and capture of the radiolabeled peptide onto a Whatman P81 (phosphocellulose) filter plate. The amount of radiolabeled product is then measured by liquid scintillation counting. The final buffer conditions were as follows: 20 mM K^+MOPS, pH 7.4, 10 mM MgCl2, 0.005% Tween-20, 1 mM DTT. Assay mixtures contained 35 μM [γ-^33P]ATP (20 μCi/mL), 7.5 μM PIM2tide and 0.25 nM PIM-1 in a total volume of 50 μL. Incubations were carried out for 60 min at 22° C. and quenched with 75 μL of 200 mM H3PO4, filtered through a Whatman P81 plate and washed (1×200 μL and 5×100 μL) with 200 mM H3PO4. Fifty μL of liquid scintillation cocktail were then added per well, and the plate was counted for 30 s/well using a TopCount NXT.
# (§2) Compounds were prepared at 50× the final concentration in DMSO by conducting 3-fold serial dilutions from a 500-μM intermediate dilution to give a 10-point dosing curve having a high dose of 10 μM. One-μL aliquots of these were then transferred to the assay mixtures above to give a final concentration of DMSO of 2%. A standard or reference compound was typically included on each assay plate to validate that plate. For each plate, percent of control (POC) values were calculated for each well. IC50 values were estimated from the POC values using a standard 4-parameter logistic model. The IC50 is defined as the concentration of inhibitor at which the POC equals 50 for the fitted curve.
# Assay was performed as described in Example A, using 4 μM [γ-^33P]ATP (20 μCi/mL), 1.0 μM PIM2tide and 1.5 nM GST-tagged recombinant full-length human Pim-2 in place of PIM-1.
# recombinant rat PIM-3 = recombinant rat PIM-3 (Rattus norvegicus, UniProt O70444); test: PIM-3 Assay (as Example A); details: averaged IC50; 30 μM ATP, 3.75 μM PIM2tide, 0.5 nM PIM-3
# Procedure: as §1, §2
# Assay was performed as described in Example A, using 30 μM [γ-^33P]ATP (20 μCi/mL), 3.75 μM PIM2tide and 0.5 nM recombinant rat PIM-3 in place of PIM-1.
# PIM-1 = PIM-1 (Homo sapiens, UniProt P11309); test: Enzyme PIM-1 Assay ([33P]ATP incorporation into PIM2tide, filter plate); details: averaged IC50; 35 μM ATP, 7.5 μM PIM2tide, 0.25 nM PIM-1, 60 min at 22° C.
# Procedure: as §1, §2
# Chain of PIM-1 (P11309 whole entry, species assumed): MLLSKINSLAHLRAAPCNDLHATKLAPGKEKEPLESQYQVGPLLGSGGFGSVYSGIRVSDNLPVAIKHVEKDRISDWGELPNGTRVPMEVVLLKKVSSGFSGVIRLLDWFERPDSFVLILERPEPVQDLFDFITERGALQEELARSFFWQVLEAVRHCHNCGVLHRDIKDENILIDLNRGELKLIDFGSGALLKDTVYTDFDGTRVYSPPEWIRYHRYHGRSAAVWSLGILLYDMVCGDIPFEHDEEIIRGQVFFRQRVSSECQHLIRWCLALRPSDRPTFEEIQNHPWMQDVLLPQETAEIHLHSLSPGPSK
# T1 sequence (Q9P1W9 whole entry): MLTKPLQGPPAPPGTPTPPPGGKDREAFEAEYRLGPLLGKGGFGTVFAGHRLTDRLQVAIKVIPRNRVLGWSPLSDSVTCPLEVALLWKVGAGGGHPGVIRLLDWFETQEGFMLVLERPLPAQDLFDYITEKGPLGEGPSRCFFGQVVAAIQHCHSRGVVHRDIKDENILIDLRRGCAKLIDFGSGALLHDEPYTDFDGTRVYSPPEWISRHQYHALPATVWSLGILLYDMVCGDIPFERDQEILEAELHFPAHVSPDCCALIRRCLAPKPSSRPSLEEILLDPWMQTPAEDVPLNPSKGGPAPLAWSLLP
SMILES,IC50 [1] [nM],IC50 (recombinant rat PIM-3) [nM],IC50 (PIM-1) [nM]
"CC(C)Oc1cc(F)cc2ccc(-c3nnc4ccc([C@H](N5CCC(C)(O)C5)C(F)(F)F)cn34)nc12 (single isomer, unassigned; diastereomer 2) [Example 203, hydrochloride]",> 1000,37,19.8
"CCOc1cc2nc(-c3nnc4ccc([C@H](N5CCC(N)(CC)C5)C(F)(F)F)cn34)ccc2cc1F (single isomer, unassigned; diastereomer 2) [Example 245, dihydrochloride]",125,0.5,1.04
"CCC1(N)CCN([C@H](c2ccc3nnc(-c4ccc5cccc(OC)c5n4)n3c2)C(F)(F)F)C1 (single isomer, unassigned; diastereomer 2) [Example 252, dihydrochloride]",> 1000,24,4.05
"Cn1cc(-c2ccc3ccc(-c4nnc5ccc(C(N6CC[C@H](N)C6)C(F)(F)F)cn45)nc3c2)cn1 (stereo partly drawn) [Example 4, (3S)-1-(2,2,2-trifluoro-1-(3-(7-(1-methyl-1H-pyrazol-4-yl)quinolin-2-yl)-[1,2,4]triazolo[4,3-a]pyridin-6-yl)ethyl)pyrrolidin-3-amine trihydrochloride]",451,12,0.84
"COc1cccc2ccc(-c3nnc4ccc(C(N5CCCC5)C(F)(F)F)cn34)nc12 (stereo not drawn) [Example 6, 8-methoxy-2-(6-(2,2,2-trifluoro-1-(pyrrolidin-1-yl)ethyl)-[1,2,4]triazolo[4,3-a]pyridin-3-yl)quinoline]",> 1000,> 100,11.1
"COc1cccc2ccc(-c3nnc4ccc(C(N5CC[C@H](O)C5)C(F)(F)F)cn34)nc12 (stereo partly drawn) [Example 7, (3S)-1-(2,2,2-trifluoro-1-(3-(8-methoxyquinolin-2-yl)-[1,2,4]triazolo[4,3-a]pyridin-6-yl)ethyl)pyrrolidin-3-ol]",> 1000,45,3.94
"COc1cccc2ccc(-c3nnc4ccc([C@H](N5CC[C@H](N)C5)C(F)(F)F)cn34)nc12 [Example 8, (S)-1-((S)-2,2,2-trifluoro-1-(3-(8-methoxyquinolin-2-yl)-[1,2,4]triazolo[4,3-a]pyridin-6-yl)ethyl)pyrrolidin-3-amine dihydrochloride]",151,2.5,1.31
"COc1cccc2ccc(-c3nnc4ccc([C@@H](N5CC[C@H](N)C5)C(F)(F)F)cn34)nc12 [Example 9, (S)-1-((R)-2,2,2-trifluoro-1-(3-(8-methoxyquinolin-2-yl)-[1,2,4]triazolo[4,3-a]pyridin-6-yl)ethyl)pyrrolidin-3-amine dihydrochloride]",403,4.2,0.68
"N[C@@H]1CCN(C(c2ccc3nnc(-c4ccc5cccc(OCC6CC6)c5n4)n3c2)C(F)(F)F)C1 (stereo partly drawn) [Example 16, (3R)-1-(1-(3-(8-(cyclopropylmethoxy)quinolin-2-yl)-[1,2,4]triazolo[4,3-a]pyridin-6-yl)-2,2,2-trifluoroethyl)pyrrolidin-3-amine dihydrochloride]",140,6,0.28
"COc1cccc2ccc(-c3nnc4ccc(C(N5C[C@H](O)[C@@H](O)C5)C(F)(F)F)cn34)nc12 (stereo partly drawn) [Example 19, (3S,4S)-1-(2,2,2-trifluoro-1-(3-(8-methoxyquinolin-2-yl)-[1,2,4]triazolo[4,3-a]pyridin-6-yl)ethyl)pyrrolidine-3,4-diol]",> 1000,25,2.38

# Next, values leading:
IC50 [1] [nM],IC50 (recombinant rat PIM-3) [nM],IC50 (PIM-1) [nM],SMILES
> 1000,42,43.5,"Cn1cc(-c2ccc3ccc(-c4nnc5ccc([C@H](N6CCC(C)(O)C6)C(F)(F)F)cn45)nc3c2)cn1 (single isomer, unassigned; diastereomer 2) [Example 201, hydrochloride]"
> 1000,40,58,"CC(C)Oc1cccc2ccc(-c3nnc4ccc([C@H](N5CCC(C)(O)C5)C(F)(F)F)cn34)nc12 (single isomer, unassigned; diastereomer 2) [Example 207]"
93,1,1.11,"CCC1(N)CCN([C@@H](c2ccc3nnc(-c4ccc5cccc(OC)c5n4)n3c2)C(F)(F)F)C1 (single isomer, unassigned; diastereomer 2) [Example 244, dihydrochloride]"
776,2.2,0.78,"CCOc1cc2nc(-c3nnc4ccc([C@@H](N5CCC(N)(CC)C5)C(F)(F)F)cn34)ccc2cc1F (single isomer, unassigned; diastereomer 2) [Example 253, dihydrochloride]"
111,0.3,0.14,"N[C@H]1CCN([C@H](c2ccc3nnc(-c4ccc5ccc(O[C@@H]6CCC[C@H]6O)cc5n4)n3c2)C(F)(F)F)C1 (single isomer, unassigned; diastereomer 2) [Example 320, di-hydrochloride]"
5700,6.1,1.15,"N[C@H]1CCN(C(c2ccc3nnc(-c4ccc5cc(F)c(OCCOC(=O)c6ccccc6)cc5n4)n3c2)C(F)(F)F)C1 (stereo in doubt) [Example 313, 2-((2-(6-((R)-1-((S)-3-aminopyrrolidin-1-yl)-2,2,2-trifluoroethyl)-[1,2,4]triazolo[4,3-a]pyridin-3-yl)-6-fluoroquinolin-7-yl)oxy)ethyl benzoate]"
340,1.34,0.42,"COCCOc1ccc2cc(F)c(-c3nnc4ccc(C(N5CC[C@](C)(N)C5)C(F)(F)F)cn34)nc2c1 (stereo in doubt) [Example 327, (S)-3-methyl-1-((R)-2,2,2-trifluoro-1-(3-(3-fluoro-7-(2-methoxyethoxy)quinolin-2-yl)-[1,2,4]triazolo[4,3-a]pyridin-6-yl)ethyl)pyrrolidin-3-amine]"
161,1.7,0.43,"COc1cccc2ccc(-c3nnc4ccc(C(N5CC[C@H](N)C5)C(F)(F)F)cn34)nc12 (stereo partly drawn) [Example 1, (3S)-1-(2,2,2-trifluoro-1-(3-(8-methoxyquinolin-2-yl)-[1,2,4]triazolo[4,3-a]pyridin-6-yl)ethyl)pyrrolidin-3-amine dihydrochloride]"
74,1,0.19,"N[C@H]1CCN(C(c2ccc3nnc(-c4ccc5ccc(Br)cc5n4)n3c2)C(F)(F)F)C1 (stereo partly drawn) [Example 2, (3S)-1-(1-(3-(7-bromoquinolin-2-yl)-[1,2,4]triazolo[4,3-a]pyridin-6-yl)-2,2,2-trifluoroethyl)pyrrolidin-3-amine dihydrochloride]"
53,0.3,0.13,"N[C@H]1CCN(C(c2ccc3nnc(-c4ccc5ccc(C6CC6)cc5n4)n3c2)C(F)(F)F)C1 (stereo partly drawn) [Example 3, (3S)-1-(1-(3-(7-cyclopropylquinolin-2-yl)-[1,2,4]triazolo[4,3-a]pyridin-6-yl)-2,2,2-trifluoroethyl)pyrrolidin-3-amine dihydrochloride]"
131,2.6,0.25,"N[C@H]1CCN(C(c2ccc3nnc(-c4ccc5cccc(OCC6CC6)c5n4)n3c2)C(F)(F)F)C1 (stereo partly drawn) [Example 5, (3S)-1-(1-(3-(8-(cyclopropylmethoxy)quinolin-2-yl)-[1,2,4]triazolo[4,3-a]pyridin-6-yl)-2,2,2-trifluoroethyl)pyrrolidin-3-amine dihydrochloride]"
12.4,1.2,0.06,"CC(c1ccc2nnc(-c3ccc4cccc(C(C)(C)C)c4n3)n2c1)N1CC[C@H](N)C1 (stereo partly drawn) [Example 17, (3S)-1-(1-(3-(8-tert-butylquinolin-2-yl)-[1,2,4]triazolo[4,3-a]pyridin-6-yl)ethyl)pyrrolidin-3-amine trihydrochloride]"
172,0.5,0.25,"N[C@H]1CCN(C(c2ccc3nnc(-c4ccc5ccc(-c6cccnc6)cc5n4)n3c2)C(F)(F)F)C1 (stereo partly drawn) [Example 18, (3S)-1-(2,2,2-trifluoro-1-(3-(7-(pyridin-3-yl)quinolin-2-yl)-[1,2,4]triazolo[4,3-a]pyridin-6-yl)ethyl)pyrrolidin-3-amine tri-hydrochloride]"
